No end group written: not given here.
Assays:
Alternaria brassicola = type: cell-based; conditions: A brassicola, 48 hours of incubation
Ascochyta pisi = type: cell-based; conditions: A pisi, 48 hours of incubation
[1] = tested on: Fusarium oxysporum f.sp. lycopersici; type: cell-based; conditions: 48 hours of incubation
Phoma betae = type: cell-based; conditions: P betae, 48 hours of incubation
[2] = tested on: Pyrenophora tritici-repentis; type: cell-based; conditions: P tritici-repentis, 48 hours of incubation
Verticillium dahliae = type: cell-based; conditions: V dahliae, 48 hours of incubation
Isoelectric focusing = type: physicochemical; conditions: isoelectric focusing on Immobiline Dry Strips
Protocol: PAS staining for glycoproteins was done by the method of Zacharius, RM et al (1969; Anal Biochem, 30, 148-152) using ovalbumin (3.2% carbohydrate) as a positive control sample. The pI values of Mj-AMP1 and Mj-AMP2 were determined by isoelectric focusing and found to be about 10.5 for both proteins. Isoelectric focussing was done on precast Immobiline Dry Strips (Pharmacia) using marker proteins in the pI range from 4.7 to 10.6 (Pharmacia).

Substance: Mj-AMP1: antimicrobial protein from Mirabilis jalapa seeds, dimer of two 4 kDa subunits, 37 residues, SEQ ID NO:1 (QCIGNGGRCNENVGPPYCCSGFCLRQPGQGYGYCKNR; cysteine pairing not given here; also: homodimer)
- IC50 (Alternaria brassicola): 20 µg/mL
- IC50 (Ascochyta pisi): 200 µg/mL
- IC50 [1]: 200 µg/mL
- IC50 (Phoma betae): 25 µg/mL
- IC50 [2]: 300 µg/mL
- IC50 (Verticillium dahliae): 12 µg/mL
- pI (Isoelectric focusing): about 10.5

— US5942663A, “Biocidal proteins” (Zeneca Limited, priority 1991, dated 1999)
